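Briefly, cells in 96-well plates were exposed to five compound concentrations for 48 h, and endpoints were estimated by linear interpolation. Definition used: TGI = concentration required for complete inhibition of growth.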
Tests used:
Assay in all cases: NCI tumour cell line growth inhibition, 48 h
[1] = test system: SK-MEL-28 melanoma
[2] = test system: M14 melanoma
[3] = test system: HOP-62 NSCLC
[4] = test system: KM20L2 colon
[5] = test system: SN12C renal
[6] = test system: MALME-3M melanoma
[7] = test system: SNB-78 CNS
[8] = test system: NCI-H23 lung
[9] = test system: HL-60(TB) leukemia
[10] = test system: NCI-H460 lung
[11] = test system: LXFL 529 NSCLC
[12] = test system: HT29 colon
[13] = test system: RPMI-8226 leukemia
[14] = test system: HOP-92 NSCLC
[15] = test system: SNB-19 CNS
[16] = test system: COLO 205 colon
[17] = test system: OVCAR-8 ovarian
[18] = test system: M19-MEL melanoma
[19] = test system: ACHN renal
[20] = test system: EKVX NSCLC
[21] = test system: MOLT-4 leukemia
[22] = test system: A498 renal
[23] = test system: SF-539 CNS
[24] = test system: OVCAR-3 ovarian
[25] = test system: RXF-631 renal
[26] = test system: TK-10 renal
[27] = test system: OVCAR-4 ovarian
[28] = test system: UACC-257 melanoma
[29] = test system: LOX IMVI melanoma
[30] = test system: KM12 colon
[31] = test system: SF-295 CNS
[32] = test system: SF-268 CNS
[33] = test system: SW-620 colon
[34] = test system: NCI-H226 lung
[35] = test system: IGROV1 ovarian
[36] = test system: HCC-2998 colon
[37] = test system: CCRF-CEM leukemia
[38] = test system: HOP-18 NSCLC
[39] = test system: UO-31 renal
[40] = test system: SNB-75 CNS
[41] = test system: DMS 114 small cell lung
[42] = test system: CAKI-1 renal
[43] = test system: 786-0 renal
[44] = test system: SK-MEL-5 melanoma
[45] = test system: HCT-15 colon
[46] = test system: UACC-62 melanoma
[47] = test system: SR leukemia
[48] = test system: HCT-116 colon
[49] = test system: A549 NSCLC
[50] = test system: RXF 393 renal
[51] = test system: K-562 leukemia
[52] = test system: DLD-1 colon
[53] = test system: OVCAR-5 ovarian
[54] = test system: P388 leukemia
[55] = test system: DMS 273 small cell lung
[56] = test system: XF 498 CNS
[57] = test system: SK-OV-3 ovarian
[58] = test system: P388/ADR leukemia
[59] = test system: SN12K1 renal
[60] = test system: NCI-H522 lung
[61] = test system: MCF7 breast
[62] = test system: SK-MEL-2 melanoma
[63] = test system: NCI/ADR-RES ovarian
[64] = test system: U251 CNS

Measured: TGI

S=C1NC(c2ccccc2)=NC(Cc2ccccc2)(c2ccccc2)N1c1ccccc1 (stereo not drawn)
57.1 µM: [40]
> 100 µM: [1] | [2] | [3] | [4] | [5] | [6] | [7] | [8] | [9] | [10] | [11] | [12] | [13] | [14] | [15] | [16] | [17] | [18] | [19] | [20] | [21] | [22] | [23] | [24] | [25] | [26] | [27] | [28] | [29] | [30] | [31] | [32] | [33] | [34] | [35] | [36] | [37] | [38] | [39] | [41] | [42] | [43] | [44] | [45] | [46] | [47] | [48] | [49] | [50] | [51] | [52] | [53]

ClCc1nnc2n1-c1ccc(Cl)cc1SC2
16.1 µM: [22]
8.42 µM: [37]
15.8 µM: [6]
20 µM: [56]
15.9 µM: [4]
> 100 µM: [13] | [51]
8.2 µM: [8]
11 µM: [36]
30.3 µM: [39]
17.6 µM: [1]
10.3 µM: [40]
24 µM: [33]
4.24 µM: [54]
3.51 µM: [9]
10.4 µM: [18]
14 µM: [10]
13.2 µM: [23] | [38]
3.98 µM: [21]
8.09 µM: [24] | [35]
15.5 µM: [31]
> 51.9 µM: [20]
12.7 µM: [48]
4.76 µM: [63]
15.1 µM: [30]
5.64 µM: [34]
9.49 µM: [44]
17.4 µM: [3]
9.8 µM: [28]
10.2 µM: [12]
18.9 µM: [7]
> 25.2 µM: [58]
9.22 µM: [62]
23.8 µM: [45]
12.6 µM: [57] | [27]
13 µM: [16] | [55]
8.51 µM: [46]
3.21 µM: [60]
2.82 µM: [29]
9.58 µM: [41]
> 39.5 µM: [17]
9.26 µM: [14]
29.6 µM: [5]
20.3 µM: [49]
7.86 µM: [59]
9.55 µM: [32]
9.79 µM: [50]
25.7 µM: [15]
12.2 µM: [61]
24.6 µM: [53]
19.8 µM: [64]

CCCCN(CCCC)C(=O)C(=O)C(C(=O)C(=O)OC)c1nc2ccccc2o1 (stereo not drawn)
99 µM: [50]
> 100 µM: [1] | [2] | [3] | [5] | [6] | [7] | [8] | [9] | [10] | [11] | [12] | [14] | [15] | [16] | [17] | [18] | [19] | [21] | [22] | [55] | [23] | [56] | [24] | [57] | [25] | [26] | [27] | [28] | [29] | [30] | [31] | [32] | [33] | [34] | [35] | [36] | [37] | [38] | [39] | [60] | [40] | [41] | [42] | [43] | [62] | [44] | [45] | [47] | [48] | [64] | [49] | [51] | [52] | [53]

O=C(NC/C=C/CO)c1ccccc1
> 100 µM: [1] | [3] | [4] | [5] | [6] | [7] | [8] | [9] | [10] | [12] | [13] | [15] | [16] | [17] | [18] | [54] | [20] | [21] | [22] | [55] | [23] | [56] | [24] | [57] | [58] | [27] | [28] | [29] | [30] | [31] | [32] | [33] | [34] | [35] | [36] | [37] | [38] | [39] | [59] | [60] | [40] | [61] | [41] | [62] | [44] | [63] | [45] | [46] | [48] | [64] | [49] | [50] | [51] | [52] | [53]

Source: PubChem BioAssay (NCI)
